According to patent publication US6153415A, “Method for producing amide compounds using a nitrile hydratase from a thermophilic bacillus” (priority 1999, dated 2000):

Experiments:
BR449 nitrile hydratase = target: T1, BR449 nitrile hydratase (Bacillus sp. BR449, UniProt Q9L541+Q9L542); assay: Effect of additions during growth on nitrile hydratase activity of BR449; assay type: cell-based; settings: for Nitrile hydratase Specific Activity: BR449 grown with divalent metal salt 20 mg/l
T1 construct: alpha 214 aa, beta 229 aa
T1 sequence (Q9L541 1-214): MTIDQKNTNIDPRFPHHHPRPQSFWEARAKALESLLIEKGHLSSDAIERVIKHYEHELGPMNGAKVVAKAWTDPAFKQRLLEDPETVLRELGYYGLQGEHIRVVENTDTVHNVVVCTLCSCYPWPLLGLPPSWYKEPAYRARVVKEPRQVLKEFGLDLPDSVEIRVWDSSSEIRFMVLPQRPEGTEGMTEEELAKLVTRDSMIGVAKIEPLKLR
T1 sequence (Q9L542 1-229): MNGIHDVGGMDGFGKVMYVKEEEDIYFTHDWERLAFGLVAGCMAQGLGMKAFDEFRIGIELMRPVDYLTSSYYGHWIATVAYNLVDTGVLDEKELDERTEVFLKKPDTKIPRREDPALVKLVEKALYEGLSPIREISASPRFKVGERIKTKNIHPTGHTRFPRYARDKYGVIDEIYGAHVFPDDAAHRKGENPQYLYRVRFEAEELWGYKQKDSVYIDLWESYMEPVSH
Protocol: (§1) Bacillus sp. BR449 (ATCC 202119) was grown in OP medium at pH 7.2 which contained per liter: KH2 PO4, 1 g; K2 HPO4, 0.5 g; yeast extract, 1 g; malt extract, 1 g; peptone 2 g; glycerol, 3 g; casamino acids, 0.1 g. The isolate was grown at 60° C. using turbidity to monitor culture density. Divalent metal salts were added to the growth medium where indicated in concentrations of 20 mg/l.
(§2) Nitrile hydratase activity was measured using whole cells in assays containing 20 mg (dry wt) cells, in 1 ml 0.5 M acrylonitrile and potassium phosphate buffer, containing 0.5 M acrylonitrile, pH 7.5. The reaction mixture was incubated in a water bath at 50° C. with shaking for 10 minutes, and the reaction stopped by addition of 0.2 ml 2 N HCl. Acrylamide formation was measured using HPLC by injection into a Novapak C-18 reverse phase column and eluted with 1:12 acetonitrile:5mM potassium phosphate buffer, pH 2.5. Peaks were identified at 200 nm with a Waters (Newton, Mass.) variable wavelength detector and analyzed with reference to chemical standards. One unit of nitrile hydratase activity is defined as the formation of one μmole acrylamide per minute. Amidase activity was measured in the same manner using 0.5 M acrylamide as substrate by measurement of acrylic acid formation.
(§3) Divalent metal ions were added during growth of isolate BR449 to provide indications of metals stimulatory to nitrile hydratase production.

Bacillus sp. BR449 = assay: Effect of metal ions on growth (total cells) of BR449; assay type: cell-based; settings: divalent metal salt 20 mg/l in growth medium
Protocol: as §1

amidase = assay: Effect of metal ions during growth on amidase activity of BR449; assay type: cell-based, Bacillus sp. BR449; settings: BR449 grown with divalent metal salt 20 mg/l
Protocol: as §1, §2, §3

hydratase of BR449 = target: T2, hydratase of BR449 (Bacillus sp. BR449, UniProt Q9L541+Q9L542); assay: Nitrile hydratase activity with varied acrylonitrile concentration (substrate inhibition); assay type: biochemical; settings: 10% acrylonitrile, assay at 50° C.
T2 construct: alpha 214 aa, beta 229 aa
T2 sequence (Q9L541 1-214): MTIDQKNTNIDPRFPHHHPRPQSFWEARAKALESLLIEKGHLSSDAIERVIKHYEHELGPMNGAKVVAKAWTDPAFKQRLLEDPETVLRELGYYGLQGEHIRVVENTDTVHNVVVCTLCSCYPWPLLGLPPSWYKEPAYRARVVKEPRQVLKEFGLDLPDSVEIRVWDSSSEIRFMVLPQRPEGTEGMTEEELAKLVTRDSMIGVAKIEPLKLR
T2 sequence (Q9L542 1-229): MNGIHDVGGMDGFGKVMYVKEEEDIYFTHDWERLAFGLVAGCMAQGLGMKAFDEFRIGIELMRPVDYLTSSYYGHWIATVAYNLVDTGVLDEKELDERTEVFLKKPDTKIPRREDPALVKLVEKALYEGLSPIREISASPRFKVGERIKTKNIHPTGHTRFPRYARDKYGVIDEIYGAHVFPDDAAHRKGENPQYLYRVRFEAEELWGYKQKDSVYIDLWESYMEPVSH
Protocol: as §2, with “Nitrile hydratase activity was measured using whole cells in assays containing 20 mg (dry wt) cells, in 1 ml 0.5 M acrylonitrile and potassium phosphate buffer, containing 0.5 M acrylonitrile, pH 7.5.” left out

[1] = Enzyme stability study, whole cells incubated in buffer at varied temperatures; assay type: physicochemical, Bacillus sp. BR449; settings: two hour incubations in buffer, assay at 50° C.
Protocol: For studies of nitrile hydratase stability, whole cells of BR449 were incubated at varied temperatures in 50 mM potassium phosphate buffer, pH 7.5, following which the nitrile hydratase assay was carried out at 50° C.

Molecule | Nitrile hydratase Specific Activity (BR449 nitrile hydratase) [U/mg] | Total Cells (Bacillus sp. BR449) | Amidase Specific Activity (amidase) [U/mg] | Induction of hydratase activity (BR449 nitrile hydratase; addition during BR449 growth) | inhibition of BR449 hydratase (substrate inhibition) (hydratase of BR449) [%] | temperature to which the enzyme is stable [1] [°C]
[Co+2] [Co^2+] | 71.5 | 225 mt/1, dry weight | 9.7 | – | – | –
C=CC#N [acrylonitrile] | – | – | – | without effect | 47 | –
[Mn+2] [Mn^2+] | 2.2 | 65 mt/1, dry weight | 2.1 | – | – | –
[Fe+2] [Fe^2+] | 4.3 | 490 mt/1, dry weight | 2.3 | – | – | –
[Cu+2] [Cu^2+] | 1.9 | 90 mt/1, dry weight | 1.5 | – | – | –
[Ni+2] [Ni^2+] | 6.8 | 80 mt/1, dry weight | 3.4 | – | – | –
BR449 nitrile hydratase: cobalt-containing nitrile hydratase of Bacillus sp. BR449, alpha subunit SEQ ID NO:9, beta subunit SEQ ID NO:11 (protein) alpha: MTIDQKNTNIDPRFPHHHPRPQSFWEARAKALESLLIEKGHLSSDAIERVIKHYEHELGPMNGAKVVAKAWTDPAFKQRLLEDPETVLRELGYYGLQGEHIRVVENTDTVHNVVVCTLCSCYPWPLLGLPPSWYKEPAYRARVVKEPRQVLKEFGLDLPDSVEIRVWDSSSEIRFMVLPQRPEGTEGMTEEELAKLVTRDSMIGVAKIEPLKLR beta: MNGIHDVGGMDGFGKVMYVKEEEDIYFTHDWERLAFGLVAGCMAQGLGMKAFDEFRIGIELMRPVDYLTSSYYGHWIATVAYNLVDTGVLDEKELDERTEVFLKKPDTKIPRREDPALVKLVEKALYEGLSPIREISASPRFKVGERIKTKNIHPTGHTRFPRYARDKYGVIDEIYGAHVFPDDAAHRKGENPQYLYRVRFEAEELWGYKQKDSVYIDLWESYMEPVSH | – | – | – | – | – | ≤ 60
